# Results published in ChEMBL document CHEMBL1129710, “Glycomimetic selectin inhibitors: (-D-mannopyranosyloxy)methylbiphenyls” (Bioorg Med Chem Lett, 1996).
# Calls of active or inactive are those of the source. No cut-off for these calls is given here.
# How the values were obtained:
# HL-60 [1] = test: Compound was tested for its ability to inhibit sialyl Lewis X (sLex, IC50 = 2 mM) dependent binding of HL-60 cells to P-selectin fusion protein; type: functional
# HL-60 [2] = test: Compound was tested for its ability to inhibit sialyl Lewis X (sLex, IC50 = 2 mM) dependent binding of HL-60 cells to P-selectin fusion protein; Not assayed; type: functional, cell-based
# E-selectin = target: T1, E-selectin (Mus musculus, UniProt Q00690); test: Compound was tested for its ability to inhibit sialyl Lewis X dependent binding of HL-60 cells to Selectin E fusion protein
# T1 sequence (Q00690 whole entry): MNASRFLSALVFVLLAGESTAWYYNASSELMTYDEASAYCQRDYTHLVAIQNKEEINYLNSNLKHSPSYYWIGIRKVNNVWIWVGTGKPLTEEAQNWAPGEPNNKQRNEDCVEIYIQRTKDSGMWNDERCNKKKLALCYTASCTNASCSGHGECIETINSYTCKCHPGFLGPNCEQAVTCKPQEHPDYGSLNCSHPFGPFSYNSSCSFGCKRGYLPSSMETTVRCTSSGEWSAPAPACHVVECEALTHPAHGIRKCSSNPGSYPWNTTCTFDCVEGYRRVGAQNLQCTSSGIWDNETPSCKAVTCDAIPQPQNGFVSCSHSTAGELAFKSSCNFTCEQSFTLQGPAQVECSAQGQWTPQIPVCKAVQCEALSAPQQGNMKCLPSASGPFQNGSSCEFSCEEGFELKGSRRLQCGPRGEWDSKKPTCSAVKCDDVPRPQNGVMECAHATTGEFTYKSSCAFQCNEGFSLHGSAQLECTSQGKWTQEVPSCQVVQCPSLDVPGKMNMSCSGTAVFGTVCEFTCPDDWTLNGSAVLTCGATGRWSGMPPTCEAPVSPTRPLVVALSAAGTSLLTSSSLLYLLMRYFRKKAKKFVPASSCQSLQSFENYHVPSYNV
# HL-60 [3] = test: Compound was tested for its ability to inhibit sialyl Lewis X dependent binding of HL-60 cells to P-selectin fusion protein; type: functional, cell-based; conditions: Homo sapiens
SMILES,Ratio (HL-60 [1]),also measured
O=C(O)Cc1cccc(-c2cccc(CO[C@H]3O[C@H](CO)[C@@H](O)[C@@H](O)[C@@H]3O)c2)c1,1.2,–
O=C(O)CCC(=O)c1ccc(-c2cccc(CO[C@H]3O[C@H](CO)[C@@H](O)[C@@H](O)[C@@H]3O)c2)cc1,>>10,–
O=C(O)Cc1cccc(-c2ccc(CO[C@H]3O[C@H](CO)[C@@H](O)[C@@H](O)[C@@H]3O)cc2)c1,>>2.3,–
O=C(O)COc1cccc(-c2cccc(CO[C@H]3O[C@H](CO)[C@@H](O)[C@@H](O)[C@@H]3O)c2)c1,4.8,–
O=C(O)COc1ccc(-c2cccc(CO[C@H]3O[C@H](CO)[C@@H](O)[C@@H](O)[C@@H]3O)c2)cc1,1.2,–
O=C(O)c1cccc(-c2cccc(CO[C@H]3O[C@H](CO)[C@@H](O)[C@@H](O)[C@@H]3O)c2)c1,2.5,–
O=C(O)Cc1cccc(-c2ccccc2CO[C@H]2O[C@H](CO)[C@@H](O)[C@@H](O)[C@@H]2O)c1,–,Ratio (HL-60 [2]): inactive
O=C(O)Cc1ccc(-c2cccc(CO[C@H]3O[C@H](CO)[C@@H](O)[C@@H](O)[C@@H]3O)c2)cc1,>20,–
Cc1cc(-c2cccc(CO[C@H]3O[C@H](CO)[C@@H](O)[C@@H](O)[C@@H]3O)c2)cc(C)c1OCC(=O)O,0.5,–
CC(=O)N[C@H]1[C@H]([C@H](O)[C@H](O)CO)O[C@@](O[C@H]2[C@@H](O)[C@@H](CO)O[C@@H](O[C@@H]([C@H](O[C@@H]3O[C@@H](C)[C@@H](O)[C@@H](O)[C@@H]3O)[C@H](C=O)NC(C)=O)[C@H](O)CO)[C@@H]2O)(C(=O)O)C[C@@H]1O [SIALYL LEWIS X],–,IC50 (E-selectin): 3000 µM; IC50 (HL-60 [3]): 2000 µM
